Data published in ChEMBL document CHEMBL1145735, “Synthesis and antitumor activity of novel C-8 ester derivatives of leinamycin” (Bioorg Med Chem Lett, 2003).

How the values were obtained:
Mus musculus [1] = assay: Antitumor activity against human Lu-65 tumor cells, at a dose of 18 mg/kg upon i.v. administration in nude mice; assay type: functional; conditions: route intravenous
Mus musculus [2] = assay: Antitumor activity against human HCT116 tumor cells, at a dose of 18 mg/kg upon i.v. administration in nude mice; assay type: functional; conditions: route intravenous
HeLa = assay: In vitro antiproliferative activity against HeLa S3 cells.; assay type: functional, cell-based; conditions: Homo sapiens
Mus musculus [3] = assay: In vivo antitumor activity against lymphocytic leukemia P388 in mice expressed as maximal increase in life span at an optimal dose of 16 mg/kg.; assay type: functional
Mus musculus [4] = assay: Antitumor activity against human A-2780 tumor cells, at a dose of 18 mg/kg upon i.v. administration in nude mice; assay type: functional; conditions: route intravenous
Mus musculus [5] = assay: In vivo antitumor activity against murine sarcoma 180 cells at an optimal dose of 16 mg/kg.; assay type: functional
Mus musculus [6] = assay: Antitumor activity against human Lu-65 tumor cells, at a dose of 8.0 mg/kg upon i.v. administration in nude mice; assay type: functional; conditions: route intravenous
Mus musculus [7] = assay: Antitumor activity against human A-2780 tumor cells, at a dose of 8.0 mg/kg upon i.v. administration in nude mice; assay type: functional; conditions: route intravenous
Mus musculus [8] = assay: Antitumor activity against human HCT116 tumor cells, at a dose of 8.0 mg/kg upon i.v. administration in nude mice; assay type: functional; conditions: route intravenous
Mus musculus [9] = assay: In vivo antitumor activity against murine sarcoma 180 cells at an optimal dose of 1 mg/kg.; assay type: functional

SMILES	T/C (Mus musculus [1])	T/C (Mus musculus [2])	IC50 (HeLa)	ILS at 16 mg/kg (Mus musculus [3])	T/C (Mus musculus [4])	T/C (Mus musculus [5])	T/C (Mus musculus [6])	T/C (Mus musculus [7])	T/C (Mus musculus [8])	T/C (Mus musculus [9])
C/C1=C\[C@@H](OC(=O)CNC(=O)CCNC(=O)OCc2ccccc2)C(=O)/C=C/C=C/c2csc(n2)[C@@H](C)N2C(=O)C[C@@]([C@@](C)(O)C(=O)SCc3oc(=O)oc3C)(CC1)[S+]2[O-] (stereo partly specified)	0.48	0.64	0.011 µM	91%	0.46	0.15	–	–	–	–
C/C1=C\[C@@H](O[C@H]2CCCCO2)C(=O)/C=C/C=Cc2csc(n2)[C@@H](C)N2C(=O)C[C@@]([C@@](C)(O)C(=O)SCc3oc(=O)oc3C)(CC1)[S+]2[O-] (stereo partly specified)	–	–	–	–	–	–	0.33	0.43	0.48	–
COCCOCC(=O)O[C@@H]1/C=C(\C)CC[C@]2(CC(=O)N[C@@H](C)c3nc(cs3)/C=C\C=C\C1=O)[S+]([O-])SC(=O)[C@]2(C)O (stereo partly specified)	–	–	0.026 µM	–	–	–	–	–	–	0.72
